# Reference: patent US20250345392A1, “ANNEXIN A1 LIQUID PHARMACEUTICAL COMPOSITION” (ResoTher Pharma A/S, priority 2022, published 2025)
# Like-named read-outs stand apart in the source and are kept apart here. Ends that are not written are not given here.
# Experiment: Clinical test in humans, single 30-min i.v. infusion, plasma PK
# Type: in vivo
# Conditions: human; for AUC(0-inf) / Cmax / Vd / clearance / AUC(0-t) / half-life / Tmax: in vivo, iv
# Procedure: A total of 8 healthy subjects were included in each group. Group 1 received 25 μg/kg of Peptide 1, Group 2 received 50 μg/kg of Peptide 1, Group 3 received 100 μg/kg of Peptide 1, Group 4 received 150 μg/kg of Peptide 1, Group 5 received 200 μg/kg of Peptide 1 and Group 7 received 400 μg/kg of Peptide 1.
# The tested liquid pharmaceutical composition has a pH of 8.2-8.4, and comprises the following: • i) 5 mg/ml of Peptide 1, • ii) 4% (w/w) mannitol, • iii) 1% (w/w) sucrose, • iv) 0.01% (w/w) Polysorbate-80, • v) 10 mM glycyl-glycine, and • vi) sterile water for injection.
# In these groups, 6 subjects received the active treatment (i.e. a single Peptide 1 30-min intravenous (i.v.) infusion corresponding to the above doses) and 2 received the placebo. In order to prevent any anticipated unblinding, the subjects under active treatment were recorded by the bioanalytical laboratory.
# Blood samples were collected for PK purpose for Peptide 1 determinations on Day 1 at the following time points: pre-dose, then, 10 min, 20 min, 30 min (30 min=0.5), 0.75, 1.0, 1.5, 2.0, 2.5, 3.0, 4.0, 6.0, 8.0, 12.0, 16.0 and 24.0 h after the infusion start.
# Venous whole blood samples were collected from all subjects.
# Plasma samples were analyzed for Peptide 1 using validated Liquid chromatography—Tandem Mass spectrometry (LC-MS/MS) methods by Charles River Laboratories (CRL).
# Derivation of PK parameters were carried out by PhinC Development using Phoenix WinNonlin® (Version Phoenix 8.1—Certara—Princeton—USA). A non-compartmental analysis (NCA) approach was chosen.
# For the calculation of the PK parameters and characteristics the following rules were applied: • All the plasma concentrations validated by the bioanalytical laboratory and provided to the pharmacokineticist were used for the PK analysis. • The theoretical PK blood sampling time points were used. • At time points in the lag-time between time zero and the first concentration equal or above limit of quantification (LOQ), concentrations below the LOQ (BLQ) were set to zero (0). • Concentrations BLQ between 2 concentrations equal or above LOQ were considered as missing. • Trailing concentrations (at time point between time of last measurable concentrations and time of last blood sample) BLQ were not used in calculations. • For concentration above the upper limit of quantification and reported as above limit of quantification (ALQ) in the final plasma concentration tables, ALQ was considered as missing for the PK analysis. • Not reported (NR) concentration was excluded from the PK analysis. • For the first administration, if pre-dose concentration was less than or equal to 5% of Cmax value in a PK profile, the subject's data was included in all PK measurements and calculations without any adjustments. If the pre-dose value was greater than 5% of Cmax, the subject was dropped from all statistical evaluations.
# The following PK parameters of Peptide 1, were derived for each subject receiving the active treatment on Day 1: • Cmax: The observed maximum concentration in plasma measured in a subject after dosing identified by inspection of the plasma drug concentration versus (vs.) time data by WinNonlin®. • tmax: The time at which Cmax was apparent, identified by inspection of the plasma drug concentration vs. time data by Phoenix WinNonlin®. • AUC0-24: The area under the concentration-time curve from time zero (pre-dose) to 24 h was calculated using a linear trapezoidal method. AUC0-24 was only calculated if there were at least 3 concentrations above LOQ. • AUC0-t: The area under the concentration-time curve from time zero (pre-dose) to the time of last quantifiable concentration was calculated using a linear trapezoidal method. The AUC was only calculated if there were at least 3 concentrations above LOQ. • ke: The terminal plasma elimination rate-constant was estimated from log-linear regression analysis of the terminal phase of the plasma concentration-time profile. […]
# [1] = 25 ug/kg, single 30-min i.v. infusion 25 μg/kg, GM
# [2] = 50 ug/kg, single 30-min i.v. infusion 50 μg/kg, mean
# [3] = 100 ug/kg, single 30-min i.v. infusion 100 μg/kg, mean
# [4] = 150 ug/kg, single 30-min i.v. infusion 150 μg/kg, GM
# [5] = 150 ug/kg, single 30-min i.v. infusion 150 μg/kg, mean
# [6] = 200 ug/kg, single 30-min i.v. infusion 200 μg/kg, GM
# [7] = 400 ug/kg, single 30-min i.v. infusion 400 μg/kg, mean
# [8] = single 30-min i.v. infusion 25 μg/kg, mean
# [9] = single 30-min i.v. infusion 50 μg/kg, GM
# [10] = single 30-min i.v. infusion 100 μg/kg, GM
# [11] = single 30-min i.v. infusion 200 μg/kg, mean
# [12] = single 30-min i.v. infusion 400 μg/kg, GM
# [13] = single 30-min i.v. infusion 400 μg/kg, mean
substance,measurement,setting,value
AMVSEFLKQAWFIENEEQEYVQTLKSSKGGPGSAVSPYPTFNPSSDV-NH2 [Peptide 1],increase of exposure parameters (Cmax and AUCs),between 100 μg/kg and 400 μg/kg (dose increased by 4-fold),about 4.3 fold
same,increase of exposure parameters (Cmax and AUCs),between 150 μg/kg and 400 μg/kg (dose increased by 2.7-fold),around 3.2 fold
same,increase of exposure parameters (Cmax and AUCs),between 200 μg/kg and 400 μg/kg (dose increased by 2 fold),around 2 fold
same,AUC(0-inf),[1],211 ng·h/mL
same,Cmax,[1],161 ng/mL
same,Vd,[1],0.13 L/kg
same,clearance,[1],2 mL/min/kg
same,AUC(0-t),"25 ug/kg, single 30-min i.v. infusion 25 μg/kg, GM, read-out: AUC0-24",211 ng·h/mL
same,AUC(0-t),"25 ug/kg, single 30-min i.v. infusion 25 μg/kg, GM, read-out: AUC0-t",130 ng·h/mL
same,half-life,"25 ug/kg, single 30-min i.v. infusion 25 μg/kg, GM, read-out: t1/2 (converted)",47.4 min
same,Vd,"25 ug/kg, single 30-min i.v. infusion 25 μg/kg, mean",0.14 L/kg
same,AUC(0-t),"25 ug/kg, single 30-min i.v. infusion 25 μg/kg, mean, read-out: AUC0-t",132 ng·h/mL
same,AUC(0-inf),"50 ug/kg, single 30-min i.v. infusion 50 μg/kg, GM",456 ng·h/mL
same,AUC(0-t),"50 ug/kg, single 30-min i.v. infusion 50 μg/kg, GM, read-out: AUC0-24",457 ng·h/mL
same,AUC(0-t),"50 ug/kg, single 30-min i.v. infusion 50 μg/kg, GM, read-out: AUC0-t",369 ng·h/mL
same,half-life,"50 ug/kg, single 30-min i.v. infusion 50 μg/kg, GM, read-out: t1/2 (converted)",54 min
same,AUC(0-inf),[2],464 ng·h/mL
same,Cmax,[2],375 ng/mL
same,Vd,[2],0.14 L/kg
same,clearance,[2],1.83 mL/min/kg
same,AUC(0-t),"50 ug/kg, single 30-min i.v. infusion 50 μg/kg, mean, read-out: AUC0-24",464 ng·h/mL
same,AUC(0-t),"50 ug/kg, single 30-min i.v. infusion 50 μg/kg, mean, read-out: AUC0-t",378 ng·h/mL
same,half-life,"50 ug/kg, single 30-min i.v. infusion 50 μg/kg, mean, read-out: t1/2 (converted)",55.2 min
same,Cmax,"100 ug/kg, single 30-min i.v. infusion 100 μg/kg, GM",899 ng/mL
same,half-life,"100 ug/kg, single 30-min i.v. infusion 100 μg/kg, GM, read-out: t1/2 (converted)",67.8 min
same,AUC(0-inf),[3],1110 ng·h/mL
same,Cmax,[3],916 ng/mL
same,Vd,[3],0.15 L/kg
same,clearance,[3],1.5 mL/min/kg
same,AUC(0-t),"100 ug/kg, single 30-min i.v. infusion 100 μg/kg, mean, read-out: AUC0-24",1110 ng·h/mL
same,AUC(0-t),"100 ug/kg, single 30-min i.v. infusion 100 μg/kg, mean, read-out: AUC0-t",1000 ng·h/mL
same,half-life,"100 ug/kg, single 30-min i.v. infusion 100 μg/kg, mean, read-out: t1/2 (converted)",69 min
same,AUC(0-inf),[4],1490 ng·h/mL
same,Cmax,[4],1250 ng/mL
same,Vd,[4],0.16 L/kg
same,AUC(0-t),"150 ug/kg, single 30-min i.v. infusion 150 μg/kg, GM, read-out: AUC0-24",1490 ng·h/mL
same,AUC(0-t),"150 ug/kg, single 30-min i.v. infusion 150 μg/kg, GM, read-out: AUC0-t",1370 ng·h/mL
same,half-life,"150 ug/kg, single 30-min i.v. infusion 150 μg/kg, GM, read-out: t1/2 (converted)",67.8 min
same,AUC(0-inf),[5],1520 ng·h/mL
same,Cmax,[5],1280 ng/mL
same,Vd,[5],0.17 L/kg
same,clearance,[5],1.67 mL/min/kg
same,AUC(0-t),"150 ug/kg, single 30-min i.v. infusion 150 μg/kg, mean, read-out: AUC0-24",1520 ng·h/mL
same,AUC(0-t),"150 ug/kg, single 30-min i.v. infusion 150 μg/kg, mean, read-out: AUC0-t",1400 ng·h/mL
same,half-life,"150 ug/kg, single 30-min i.v. infusion 150 μg/kg, mean, read-out: t1/2 (converted)",69 min
same,AUC(0-inf),[6],2280 ng·h/mL
same,Cmax,[6],1700 ng/mL
same,Vd,[6],0.18 L/kg
same,clearance,[6],1.5 mL/min/kg
same,AUC(0-t),"200 ug/kg, single 30-min i.v. infusion 200 μg/kg, GM, read-out: AUC0-24",2280 ng·h/mL
same,AUC(0-t),"200 ug/kg, single 30-min i.v. infusion 200 μg/kg, GM, read-out: AUC0-t",2120 ng·h/mL
same,half-life,"200 ug/kg, single 30-min i.v. infusion 200 μg/kg, GM, read-out: t1/2 (converted)",86.4 min
same,AUC(0-inf),[7],4870 ng·h/mL
same,Vd,[7],0.19 L/kg
same,clearance,[7],1.33 mL/min/kg
same,AUC(0-t),"400 ug/kg, single 30-min i.v. infusion 400 μg/kg, mean, read-out: AUC0-24",4870 ng·h/mL
same,AUC(0-t),"400 ug/kg, single 30-min i.v. infusion 400 μg/kg, mean, read-out: AUC0-t",4720 ng·h/mL
same,half-life,"400 ug/kg, single 30-min i.v. infusion 400 μg/kg, mean, read-out: t1/2 (converted)",98.4 min
same,AUC(0-inf),[8],211 ng·h/mL
same,Cmax,[8],162 ng/mL
same,clearance,[8],2 mL/min/kg
same,AUC(0-t),"single 30-min i.v. infusion 25 μg/kg, mean, read-out: AUC0-24",211 ng·h/mL
same,half-life,"single 30-min i.v. infusion 25 μg/kg, mean, read-out: t1/2 (converted)",47.4 min
same,Cmax,[9],371 ng/mL
same,Vd,[9],0.14 L/kg
same,clearance,[9],1.83 mL/min/kg
same,AUC(0-inf),[10],1100 ng·h/mL
same,Vd,[10],0.15 L/kg
same,clearance,[10],1.5 mL/min/kg
same,AUC(0-t),"single 30-min i.v. infusion 100 μg/kg, GM, read-out: AUC0-24",1100 ng·h/mL
same,AUC(0-t),"single 30-min i.v. infusion 100 μg/kg, GM, read-out: AUC0-t",991 ng·h/mL
same,clearance,"single 30-min i.v. infusion 150 μg/kg, GM",1.67 mL/min/kg
same,AUC(0-inf),[11],2280 ng·h/mL
same,Cmax,[11],1700 ng/mL
same,Vd,[11],0.18 L/kg
same,clearance,[11],1.5 mL/min/kg
same,AUC(0-t),"single 30-min i.v. infusion 200 μg/kg, mean, read-out: AUC0-24",2280 ng·h/mL
same,AUC(0-t),"single 30-min i.v. infusion 200 μg/kg, mean, read-out: AUC0-t",2120 ng·h/mL
same,half-life,"single 30-min i.v. infusion 200 μg/kg, mean, read-out: t1/2 (converted)",87 min
same,AUC(0-inf),[12],4840 ng·h/mL
same,Cmax,[12],3400 ng/mL
same,Vd,[12],0.19 L/kg
same,clearance,[12],1.33 mL/min/kg
same,AUC(0-t),"single 30-min i.v. infusion 400 μg/kg, GM, read-out: AUC0-24",4840 ng·h/mL
same,AUC(0-t),"single 30-min i.v. infusion 400 μg/kg, GM, read-out: AUC0-t",4690 ng·h/mL
same,half-life,"single 30-min i.v. infusion 400 μg/kg, GM, read-out: t1/2 (converted)",97.2 min
same,Cmax,[13],3420 ng/mL
same,Vd,[13],~0.19 L/kg
same,clearance,[13],~1.33 mL/min/kg
same,half-life,"single 30-min i.v. infusion, range at all dose levels, read-out: GM t1/2",48 to 96 min
same,time of first measurable concentrations after the start of infusion,"single 30-min i.v. infusion, all subjects",0.16 h
same,time up to which concentrations were measurable in all subjects after the start of infusion,"single 30-min i.v. infusion, highest dose",at least 6 hours
same,time up to which concentrations were measurable in all subjects after start of the infusion,"single 30-min i.v. infusion, lowest dose",at least 1 hour
same,Tmax,[1],30 min
same,Tmax,"50 ug/kg, single 30-min i.v. infusion 50 μg/kg, median",30 min
same,Tmax,"100 ug/kg, single 30-min i.v. infusion 100 μg/kg, median",30 min
same,Tmax,"150 ug/kg, single 30-min i.v. infusion 150 μg/kg, median",30 min
same,Tmax,[6],30 min
same,Tmax,"400 ug/kg, single 30-min i.v. infusion 400 μg/kg, median",30 min
same,Tmax,"single 30-min i.v. infusion, all subjects (time of the end of infusion)",30 min
